Earlier results, collected in US12245592B2, “Encapsulated biocides and biorepellents” (Aerogel ApS, priority 2018, dated 2025).

Conditions: pure biocide

Molecule | Biocide density [gr/cm^3]
On1ccccc1=S.On1ccccc1=S.[Cu] [Copper pyrithione, copper pyrithione] | 1.82
N#C[S][Cu][S]C#N [Copper thiocyanate] | 2.84
N#Cc1c(-c2ccc(Cl)cc2)[nH]c(C(F)(F)F)c1Br [Econea, 4-bromo-2-(4-chlorophenyl)-5-(trifluoromethyl)-1H-pyrrole-3-carbonitrile] | 1.71
Zinc pyrithione | 1.78
